Tests used:
Assay in all cases: relative viability (nuclei count vs DMSO), 5 days (fraction); higher = more cells survive
A-427 = system: A-427
In short: (§1)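 Dosing by pin tool came one day after lung cancer cell lines were seeded in 1536-well plates, using either one drug or a fixed anchor-drug dose plus five library-drug doses (not always all listed) in √10 steps. After 5 days, nuclei were counted on 4× images. Relative viability is treated-well nuclei count divided by vehicle-well nuclei count, and values are medians of duplicate plates.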

HCC-15 = system: HCC-15
In short: as §1

HCC-78 = system: HCC-78
In short: as §1

HOP-62 = system: HOP-62
In short: as §1

LC-2-ad = system: LC-2-ad
In short: as §1

LXF-289 = system: LXF-289
In short: as §1

NCI-H1734 = system: NCI-H1734
In short: as §1

NCI-H1755 = system: NCI-H1755
In short: as §1

NCI-H1792 = system: NCI-H1792
In short: as §1

NCI-H1915 = system: NCI-H1915
In short: as §1

NCI-H1975 = system: NCI-H1975
In short: as §1

NCI-H2126 = system: NCI-H2126
In short: as §1

NCI-H2228 = system: NCI-H2228
In short: as §1

NCI-H2347 = system: NCI-H2347
In short: as §1

NCI-H358 = system: NCI-H358
In short: as §1

NCI-H647 = system: NCI-H647
In short: as §1

PC-3 [JPC-3] = system: PC-3 [JPC-3]
In short: as §1

RERF-LC-KJ = system: RERF-LC-KJ
In short: as §1

SK-LU-1 = system: SK-LU-1
In short: as §1

SW 1573 = system: SW 1573
In short: as §1

`CCN(CC)CCCCNc1ncc2cc(-c3cc(OC)cc(OC)c3)c(NC(=O)NC(C)(C)C)nc2n1` + C[C@]1(O)C[C@@H](c2nc(-c3ccc4ccc(-c5ccccc5)nc4c3)c3c(N)nccn32)C1 [Linsitinib] (partner 1 µM) gave a relative viability (A-427; first compound 0.01 µM) of 1.12, a relative viability (A-427; first compound 0.03162 µM) of 1.17 and a relative viability (A-427; first compound 0.1 µM) of 1.21. For the same compound, the relative viability (A-427; first compound 0.3162 µM) was 1.18, the relative viability (A-427; first compound 1 µM) was 0.993 and the relative viability (HCC-15; first compound 0.01 µM) was 1.04. It also gave a relative viability (HCC-15; first compound 0.03162 µM) of 0.875, a relative viability (HCC-15; first compound 0.1 µM) of 0.951 and a relative viability (HCC-15; first compound 0.3162 µM) of 0.925. For the same compound, the relative viability (HCC-15; first compound 1 µM) was 0.872, the relative viability (HCC-78; first compound 0.03162 µM) was 0.55 and the relative viability (HCC-78; first compound 0.1 µM) was 0.497. It also gave a relative viability (HCC-78; first compound 0.3162 µM) of 0.593, a relative viability (HCC-78; first compound 1 µM) of 0.415 and a relative viability (HOP-62; first compound 0.01 µM) of 1.04. For the same compound, the relative viability (HOP-62; first compound 0.03162 µM) was 1.02, the relative viability (HOP-62; first compound 0.1 µM) was 0.935 and the relative viability (HOP-62; first compound 0.3162 µM) was 1.14. The relative viability (HOP-62; first compound 1 µM) was 0.873, the relative viability (LC-2-ad; first compound 0.01 µM) was 0.803 and the relative viability (LC-2-ad; first compound 0.03162 µM) was 0.913. For the same compound, the relative viability (LC-2-ad; first compound 0.1 µM) was 0.958, the relative viability (LC-2-ad; first compound 0.3162 µM) was 0.876 and the relative viability (LC-2-ad; first compound 1 µM) was 0.757. For the same compound, the relative viability (LXF-289; first compound 0.01 µM) was 0.974, the relative viability (LXF-289; first compound 0.03162 µM) was 1.02 and the relative viability (LXF-289; first compound 0.1 µM) was 1.03. For the same compound, the relative viability (LXF-289; first compound 0.3162 µM) was 0.972, the relative viability (LXF-289; first compound 1 µM) was 0.843 and the relative viability (NCI-H1734; first compound 0.01 µM) was 0.864. It also gave a relative viability (NCI-H1734; first compound 0.03162 µM) of 0.923, a relative viability (NCI-H1734; first compound 0.1 µM) of 0.993 and a relative viability (NCI-H1734; first compound 0.3162 µM) of 0.913. For the same compound, the relative viability (NCI-H1734; first compound 1 µM) was 0.835, the relative viability (NCI-H1755; first compound 0.01 µM) was 1.08 and the relative viability (NCI-H1755; first compound 0.03162 µM) was 0.979. It also gave a relative viability (NCI-H1755; first compound 0.1 µM) of 0.995, a relative viability (NCI-H1755; first compound 0.3162 µM) of 1.08 and a relative viability (NCI-H1755; first compound 1 µM) of 0.925. For the same compound, the relative viability (NCI-H1792; first compound 0.01 µM) was 0.572, the relative viability (NCI-H1792; first compound 0.03162 µM) was 0.501 and the relative viability (NCI-H1792; first compound 0.1 µM) was 0.475. For the same compound, the relative viability (NCI-H1792; first compound 0.3162 µM) was 0.696, the relative viability (NCI-H1792; first compound 1 µM) was 0.295 and the relative viability (NCI-H1915; first compound 0.01 µM) was 1.11. It also gave a relative viability (NCI-H1915; first compound 0.03162 µM) of 1.12, a relative viability (NCI-H1915; first compound 0.1 µM) of 1.12 and a relative viability (NCI-H1915; first compound 0.3162 µM) of 1.1. For the same compound, the relative viability (NCI-H1915; first compound 1 µM) was 1.15, the relative viability (NCI-H1975; first compound 0.01 µM) was 0.976 and the relative viability (NCI-H1975; first compound 0.03162 µM) was 0.949. The relative viability (NCI-H1975; first compound 0.1 µM) was 1.11, the relative viability (NCI-H1975; first compound 0.3162 µM) was 1.01 and the relative viability (NCI-H1975; first compound 1 µM) was 0.856. The relative viability (NCI-H2126; first compound 0.01 µM) was 0.725, the relative viability (NCI-H2126; first compound 0.03162 µM) was 0.712 and the relative viability (NCI-H2126; first compound 0.1 µM) was 0.794. For the same compound, the relative viability (NCI-H2126; first compound 0.3162 µM) was 0.674, the relative viability (NCI-H2126; first compound 1 µM) was 0.708 and the relative viability (NCI-H2228; first compound 0.01 µM) was 0.741. It also gave a relative viability (NCI-H2228; first compound 0.03162 µM) of 0.834, a relative viability (NCI-H2228; first compound 0.1 µM) of 0.872 and a relative viability (NCI-H2228; first compound 0.3162 µM) of 1.07. For the same compound, the relative viability (NCI-H2228; first compound 1 µM) was 0.635, the relative viability (NCI-H2347; first compound 0.01 µM) was 0.93 and the relative viability (NCI-H2347; first compound 0.03162 µM) was 0.999. It also gave a relative viability (NCI-H2347; first compound 0.1 µM) of 0.916, a relative viability (NCI-H2347; first compound 0.3162 µM) of 1.05 and a relative viability (NCI-H2347; first compound 1 µM) of 0.889. It also gave a relative viability (NCI-H358; first compound 0.01 µM) of 0.731, a relative viability (NCI-H358; first compound 0.03162 µM) of 0.748 and a relative viability (NCI-H358; first compound 0.1 µM) of 0.767. For the same compound, the relative viability (NCI-H358; first compound 0.3162 µM) was 0.859, the relative viability (NCI-H358; first compound 1 µM) was 0.695 and the relative viability (NCI-H647; first compound 0.01 µM) was 1.31. It also gave a relative viability (NCI-H647; first compound 0.03162 µM) of 1.09, a relative viability (NCI-H647; first compound 0.1 µM) of 1.75 and a relative viability (NCI-H647; first compound 0.3162 µM) of 1.52. The relative viability (NCI-H647; first compound 1 µM) was 1, the relative viability (PC-3 [JPC-3]; first compound 0.01 µM) was 0.999 and the relative viability (PC-3 [JPC-3]; first compound 0.03162 µM) was 0.982. The relative viability (PC-3 [JPC-3]; first compound 0.1 µM) was 0.954, the relative viability (PC-3 [JPC-3]; first compound 0.3162 µM) was 1.03 and the relative viability (PC-3 [JPC-3]; first compound 1 µM) was 0.993. The relative viability (RERF-LC-KJ; first compound 0.01 µM) was 0.891, the relative viability (RERF-LC-KJ; first compound 0.03162 µM) was 0.961 and the relative viability (RERF-LC-KJ; first compound 0.1 µM) was 1.04. It also gave a relative viability (RERF-LC-KJ; first compound 0.3162 µM) of 1.01, a relative viability (RERF-LC-KJ; first compound 1 µM) of 0.887 and a relative viability (SK-LU-1; first compound 0.01 µM) of 1.24. The relative viability (SK-LU-1; first compound 0.03162 µM) was 1.1, the relative viability (SK-LU-1; first compound 0.1 µM) was 1.4 and the relative viability (SK-LU-1; first compound 0.3162 µM) was 1.49. For the same compound, the relative viability (SK-LU-1; first compound 1 µM) was 0.988, the relative viability (SW 1573; first compound 0.01 µM) was 0.811 and the relative viability (SW 1573; first compound 0.03162 µM) was 0.785. The relative viability (SW 1573; first compound 0.1 µM) was 0.892, the relative viability (SW 1573; first compound 0.3162 µM) was 0.734 and the relative viability (SW 1573; first compound 1 µM) was 0.789.
